In ChEMBL document CHEMBL5500409, “Discovery of 5-(Piperidin-4-yl)-1,2,4-oxadiazole Derivatives as a New Class of Human Caseinolytic Protease P Agonists for the Treatment of Hepatocellular Carcinoma” (J Med Chem, 2024):

Assays:
[1] = biological target: T1, ATP-dependent Clp protease proteolytic subunit, mitochondrial (Homo sapiens, UniProt Q16740); assay: Agonist activity at human ClpP using Ac-WLA-AMC as substrate assessed as induction of substrate degradation
[2] = biological target: T1, ATP-dependent Clp protease proteolytic subunit, mitochondrial; assay: Agonist activity at N-terminal SUMO tagged human ClpP transfected in Escherichia coli assessed as induction of alpha-casein degradation preincubated for 10 mins followed by alpha-casein addition and measured after 2 hrs by brilliant blue staining based SDS-PAGE analysis
[3] = system: HCCLM3; assay: cells; settings: Homo sapiens, HCCLM3, 72 h
Description: Antiproliferative activity against human HCCLM3 cells assessed as inhibition of cell proliferation measured after 72 hrs by MTT assay

[4] = system: HCCLM3; assay: cells; settings: Homo sapiens, HCCLM3, 72 h, read-out: INH
Description: Antiproliferative activity against human HCCLM3 cells assessed as inhibition of cell proliferation at 10 uM measured after 72 hrs by MTT assay relative to control

[5] = system: HCCLM3; assay: Antitumor activity against human HCCLM3 cells xenografted in female Balb/c nude mouse assessed as tumor growth inhibition at 20 mg/kg, ip tumor inoculated for 5 days followed by compound administration every 2 days for 4 weeks relative to control; settings: HCCLM3, 672 h, read-out: TGI

T1 sequence (Q16740 whole entry): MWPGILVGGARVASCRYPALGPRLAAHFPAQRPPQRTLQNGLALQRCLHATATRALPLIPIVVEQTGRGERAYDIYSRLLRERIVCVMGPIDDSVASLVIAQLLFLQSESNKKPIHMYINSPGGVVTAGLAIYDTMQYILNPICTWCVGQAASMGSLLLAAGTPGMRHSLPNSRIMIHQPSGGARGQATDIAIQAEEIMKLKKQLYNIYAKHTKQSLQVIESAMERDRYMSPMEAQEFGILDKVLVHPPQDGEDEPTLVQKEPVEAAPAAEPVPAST

IC50 [3] [µM] | SMILES | inhibition at 10 µM [4] [%] | further results
66.4 | O=C(c1ccc(F)cc1)N1CCC[C@H](c2nc(-c3ccc(F)cc3)no2)C1 |  | EC50 [1]: 1.2 µM; EC50 [2]: 29.7 µM
 | N#Cc1cccc(C(=O)NCCc2nc(Cc3ccc(F)cc3)no2)c1 | 16.1 | 
 | O=C(c1ccc(F)cc1)N1CCC(c2nc(Cc3ccc(F)cc3)no2)CC1 | 22.1 | 
9.8 | N#Cc1cccc(CN2CCC(c3nc(Cc4cccc(F)c4)no3)CC2)c1 | 50.4 | 
3.7 | N#Cc1cccc(CN2CCC(c3nc(Cc4ccc(F)c(Br)c4)no3)CC2)c1 | 83.2 | 
 | Fc1ccc(Cc2noc(C3CCN(Cc4cccnc4)CC3)n2)cc1Cl | 16.7 | 
6.7 | N#Cc1cccc(CN2CCC(c3nc(Cc4ccc(Br)cc4)no3)CC2)c1 | 70 | 
 | Cc1ccccc1Cc1noc(C2CCN(Cc3cccc(C#N)c3)CC2)n1 | 12.3 | 
 | Fc1ccc(Cc2noc([C@H]3CCCN3Cc3ccc(F)cc3)n2)cc1 | 32.5 | 
8.9 | N#Cc1cccc(CN2CCC(c3nc(Cc4ccc(Cl)cc4)no3)CC2)c1 | 61.5 | 
7.2 | N#Cc1cccc(CN2CCC(c3nc(Cc4cccc(C(F)(F)F)c4)no3)CC2)c1 | 73.6 | 
 | N#Cc1cccc(CN2CCC[C@@H]2c2nc(Cc3ccc(F)cc3)no2)c1 | 38.8 | 
 | N#Cc1cccc(CN2CCC(c3nc(Cc4cc(F)ccc4F)no3)CC2)c1 | 12.2 | 
7.9 | N#Cc1cccc(CN2CCC(c3nc(Cc4ccccc4F)no3)CC2)c1 | 68.9 | 
7.7 | N#Cc1cccc(CN2CCC(c3nc(Cc4ccccc4)no3)CC2)c1 | 64.5 | 
5.9 | N#Cc1cccc(CN2CCC(c3nc(Cc4ccc(F)cc4)no3)CC2)c1 | 77.5 | 
 | N#Cc1cccc(CN2CCC(c3nc(Cc4cc(F)cc(F)c4)no3)CC2)c1 | 46.4 | 
 | O=C(NCCc1nc(Cc2ccc(F)cc2)no1)c1ccc(F)cc1 | 24.3 | 
 | N#Cc1cccc(CN2CCC(c3nc(Cc4ccc(F)cc4Cl)no3)CC2)c1 | 10.4 | 
 | Fc1ccc(Cc2noc(C3CCN(Cc4ccc(F)cc4)CC3)n2)cc1 | 30 | 
 | N#Cc1cccc(CN2CCC(c3nc(Cc4ccc(Br)cc4F)no3)CC2)c1 | 23.7 | 
 | N#Cc1cccc(CC(=O)N2CCC(c3nc(Cc4ccc(F)cc4)no3)CC2)c1 | 31.5 | 
 | O=C(NCCc1nc(Cc2ccc(F)cc2)no1)c1ccc(C(F)(F)F)cc1 | 15.5 | 
 | N#Cc1cccc(C(=O)N2CCC(c3nc(Cc4ccc(F)cc4)no3)CC2)c1 | 22.4 | 
 | N#Cc1cccc(CN2CCC(c3nc(Cc4ccc(F)cc4Br)no3)CC2)c1 | 12.7 | 
 | N#Cc1cccc(CN2CCC(c3nc(-c4ccc(C(F)(F)F)cc4)no3)CC2)c1 | 19.5 | 
 | N#Cc1cccc(CN2CCC(c3nc(Cc4cccc(F)c4F)no3)CC2)c1 | 11.7 | 

IC50 [3] [µM] | SMILES | inhibition at 10 µM [4] [%] | further results
 | Fc1ccc(Cc2noc(C3CCN(Cc4ccccn4)CC3)n2)cc1Cl | 11.1 | 
9.2 | N#Cc1cccc(CN2CCC(c3nc(Cc4ccc(C(F)(F)F)cc4)no3)CC2)c1 | 56.4 | 
 | Cc1ccc(Cc2noc(C3CCN(Cc4cccc(C#N)c4)CC3)n2)cc1 | 20.6 | 
 | O=C(c1ccc(F)cc1)N1CC(c2nc(Cc3ccc(F)cc3)no2)C1 | 23 | 
 | O=C(Cc1ccc(F)cc1)N1CCC[C@H](c2nc(Cc3ccc(F)cc3)no2)C1 | 5.3 | 
 | N#Cc1cccc(CN2CCC(c3nc(Cc4c(F)c(F)c(F)c(F)c4F)no3)CC2)c1 | 12.8 | 
 | N#Cc1cccc(CN2CCC(c3nc(-c4cccc(C(F)(F)F)c4)no3)CC2)c1 | 30.3 | 
4.8 | N#Cc1cccc(CN2CCC(c3nc(Cc4cc(F)c(F)c(F)c4)no3)CC2)c1 | 80.9 | 
 | Fc1ccc(Cc2noc([C@H]3CCCN3Cc3ccc(C(F)(F)F)cc3)n2)cc1 | 13.3 | 
 | O=C(Cc1ccc(F)cc1)N1CC[C@H](c2nc(Cc3ccc(F)cc3)no2)C1 | 5.8 | 
 | O=C(c1ccc(F)cc1)N1CC[C@H](c2nc(Cc3ccc(F)cc3)no2)C1 | 6 | 
 | O=C(Cc1ccc(F)cc1)N1CCC[C@@H](c2nc(-c3ccc(F)cc3)no2)C1 | 18.3 | 
 | O=C(c1ccc(F)cc1)N1CCC[C@H](c2nc(Cc3ccc(F)cc3)no2)C1 | 9.3 | 
6.4 | N#Cc1cccc(CN2CCC(c3nc(Cc4ccc(Br)c(F)c4)no3)CC2)c1 | 74.4 | 
 | O=C(c1ccc(F)cc1)N1CCC[C@@H](c2nc(-c3ccc(F)cc3)no2)C1 | 17.8 | 
6.3 | CNC(=O)c1cc(Oc2ccc(NC(=O)Nc3ccc(Cl)c(C(F)(F)F)c3)cc2)ccn1 [SORAFENIB] |  | inhibition in vivo at 20 mg/kg [5]: 80.2%
 | N#Cc1cccc(CN2CC(c3nc(Cc4ccc(F)cc4)no3)C2)c1 | 5.9 | 
 | Fc1ccc(Cc2noc([C@H]3CCCN(Cc4ccc(F)cc4)C3)n2)cc1 | 22.5 | 
 | N#Cc1cccc(CN2CCC(c3nc(Cc4ccc(F)cc4F)no3)CC2)c1 | 36.4 | 
 | O=S(=O)(NCCc1nc(Cc2ccc(F)cc2)no1)c1ccc(F)cc1 | 13.2 | 
9.3 | N#Cc1cccc(CN2CCC(c3nc(Cc4ccc(Cl)cc4F)no3)CC2)c1 | 55.9 | 
 | Fc1ccc(Cc2noc(C3CCN(Cc4ccc(C(F)(F)F)cc4)CC3)n2)cc1 | 18.8 | 
 | O=C(Cc1ccc(F)cc1)N1CC(c2nc(Cc3ccc(F)cc3)no2)C1 | 11.5 | 
 | Fc1ccc(CN2CCC[C@@H](c3nc(-c4ccc(F)cc4)no3)C2)cc1 | 11 | 
7.6 | N#Cc1cccc(CN2CCC(c3nc(Cc4ccc(Cl)c(F)c4)no3)CC2)c1 | 71.1 | 
3.7 | N#Cc1cccc(CN2CCC(c3nc(Cc4ccc(F)c(F)c4)no3)CC2)c1 | 88.3 | 
